pKd: −log10 of the molar value.

A short description of this assay: Calcium binding affinity (fluorescent calcium probe) expressed in terms of dissociation constant.

`O=C(O)CN(CC(=O)O)c1ccc(F)cc1OCCOc1cc(-c2cc3ccc(C(=O)O)cc3[nH]2)ccc1N(CC(=O)O)CC(=O)O`: the pKd was 6.33. The value for `O=C(O)CN(CC(=O)O)c1ccc(Cl)cc1OCCOc1cc2cc(-c3ncc(C(=O)O)o3)oc2cc1N(CC(=O)O)CC(=O)O` was 6.40. Then `Cc1ccc(N(CC(=O)O)CC(=O)O)c(OCCOc2cc3cc(-c4ncc(C(=O)O)o4)oc3cc2N(CC(=O)O)CC(=O)O)c1`, with 6.85; and `O=C(O)CN(CC(=O)O)c1ccc(F)cc1OCCOc1cc2cc(-c3ncc(C(=O)O)o3)oc2cc1N(CC(=O)O)CC(=O)O`, with 6.40. Then `O=C(O)CN(CC(=O)O)c1ccc(F)cc1OCCOc1cc(-c2nc3cc(C(F)(F)F)ccc3s2)ccc1N(CC(=O)O)CC(=O)O`, with 5.85; and `O=C(O)CN(CC(=O)O)c1cc2oc(-c3ncc(C(=O)O)o3)cc2cc1OCCOc1c(F)cccc1N(CC(=O)O)CC(=O)O`, with 5.28; and `Cc1ccc(N(CC(=O)O)CC(=O)O)c(OCCOc2cc(-c3nc4cc(C(F)(F)F)ccc4s3)ccc2N(CC(=O)O)CC(=O)O)c1`, with 6.18. As to `Cc1ccc(N(CC(=O)O)CC(=O)O)c(OCCOc2cc(-c3cc4ccc(C(=O)O)cc4[nH]3)ccc2N(CC(=O)O)CC(=O)O)c1`, the pKd is 6.64. Then `O=C(O)CN(CC(=O)O)c1cc(F)ccc1OCCOc1cc2cc(-c3ncc(C(=O)O)o3)oc2cc1N(CC(=O)O)CC(=O)O`, with 6.11.

Values taken from ChEMBL document CHEMBL1133224, “New ratiometric fluorescent calcium indicators with moderately attenuated binding affinities” (Bioorg Med Chem Lett, 2000).
